# Legend:
# Lolium multiflorum [1] = test: Post-emergence herbicidal effect; format: in vivo; conditions: visual scoring after about 3 weeks
# Outline: (§1)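 Foliar treatment: wettable powder or emulsion concentrate diluted in water, 600 to 800 L/ha, with 0.2% wetting agent, sprayed at one leaf. Readout: percent damage judged visually after ~3 wk in greenhouse, relative to untreated plants.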
# Echinochloa crus-galli [2] = test: Post-emergence herbicidal effect; format: in vivo; conditions: visual scoring after about 3 weeks
# Outline: as §1
# Avena fatua [3] = test: Post-emergence herbicidal effect; format: in vivo; conditions: 320 g/ha, visual scoring after about 3 weeks
# Outline: as §1
# Setaria viridis [4] = test: Post-emergence herbicidal effect; format: in vivo; conditions: 320 g/ha (dose by row order of upper half), scoring after about 3 weeks
# Outline: as §1
# Ipomoea purpurea = test: Post-emergence herbicidal effect; format: in vivo; conditions: scoring after about 3 weeks
# Outline: as §1
# Matricaria inodora = test: Pre-emergence herbicidal effect; format: in vivo; conditions: 3 weeks
# Outline: (§2)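 Pre-emergence greenhouse test: seeds sown in sandy loam, compounds (WP or EC) sprayed onto covering soil as aqueous suspension/emulsion at 600 to 800 L/ha water with 0.2% wetting agent. Damage scored visually after 3 weeks versus untreated controls as percent efficacy (100% = plants dead).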
# Polygonum convolvulus = test: Pre-emergence herbicidal effect; format: in vivo; conditions: 3 weeks
# Outline: as §2
# Cyperus esculentus = test: Pre-emergence herbicidal effect; format: in vivo; conditions: 3 weeks
# Outline: as §2
# Abutilon theophrasti = test: Pre-emergence herbicidal effect; format: in vivo; conditions: 320 g/ha, 3 weeks
# Outline: as §2
# Lolium multiflorum [5] = test: Pre-emergence herbicidal effect; format: in vivo; conditions: 3 weeks
# Outline: as §2
# Alopecurus myosuroides [6] = test: Pre-emergence herbicidal effect; format: in vivo; conditions: 3 weeks
# Outline: as §2
# Echinochloa crus-galli [7] = test: Pre-emergence herbicidal effect; format: in vivo; conditions: 3 weeks
# Outline: as §2
# Avena fatua [8] = test: Pre-emergence herbicidal effect; format: in vivo; conditions: 3 weeks
# Outline: as §2
# Setaria viridis [9] = test: Pre-emergence herbicidal effect; format: in vivo; conditions: 3 weeks
# Outline: as §2
# Veronica persica = test: Pre-emergence herbicidal effect; format: in vivo; conditions: 3 weeks
# Outline: as §2
# Viola tricolor = test: Pre-emergence herbicidal effect; format: in vivo; conditions: 3 weeks
# Outline: as §2
# Amaranthus retroflexus = test: Pre-emergence herbicidal effect; format: in vivo; conditions: 3 weeks
# Outline: as §2
# Stellaria media = test: Pre-emergence herbicidal effect; format: in vivo; conditions: 3 weeks
# Outline: as §2
# Zea mays [10] = test: Post-emergence herbicidal effect and crop plant compatibility; format: in vivo; conditions: visual scoring after about 3 weeks
# Outline: as §1
# Oryza sativa [11] = test: as above; format: in vivo; conditions: visual scoring after about 3 weeks
# Outline: as §1
# [12] = system: Triticum aestivum (spring); test: as above; format: in vivo; conditions: visual scoring after about 3 weeks
# Outline: as §1
# [13] = logp (HCOOH), physicochemical characterization
# Zea mays [14] = test: Pre-emergence herbicidal effect and crop plant compatibility; format: in vivo; conditions: 3 weeks
# Outline: as §2
# [15] = system: Triticum aestivum (spring); test: as above; format: in vivo; conditions: 3 weeks
# Outline: as §2
# Alopecurus myosuroides [16] = test: Post-emergence herbicidal effect; format: in vivo; conditions: 320 g/ha, visual scoring after about 3 weeks
# Outline: as §1
# Oryza sativa [17] = test: Pre-emergence herbicidal effect and crop plant compatibility; format: in vivo; conditions: 80 g/ha, 3 weeks
# Outline: as §2
# [18] = 80 g/ha (dose by row order of upper half)
# [19] = 320 g/ha (dose by row order of upper half)
Compound,post-emergence efficacy ECHCG (Echinochloa crus-galli [2]; 320 g/ha) [%],MATIN herbicidal activity in percent (Matricaria inodora; 80 g/ha) [%],MATIN herbicidal activity in percent (Matricaria inodora; 320 g/ha) [%],POLCO herbicidal activity in percent (Polygonum convolvulus; 80 g/ha) [%],POLCO herbicidal activity in percent (Polygonum convolvulus; 320 g/ha) [%],LOLMU herbicidal activity in percent (Lolium multiflorum [5]; 320 g/ha) [%],ALOMY herbicidal activity in percent (Alopecurus myosuroides [6]; 320 g/ha) [%],ECHCG herbicidal activity in percent (Echinochloa crus-galli [7]; 80 g/ha) [%],ECHCG herbicidal activity in percent (Echinochloa crus-galli [7]; 320 g/ha) [%],SETVI herbicidal activity in percent (Setaria viridis [9]; 80 g/ha) [%],VERPE herbicidal activity in percent (Veronica persica; 80 g/ha) [%],VERPE herbicidal activity in percent (Veronica persica; 320 g/ha) [%],VIOTR herbicidal activity in percent (Viola tricolor; 80 g/ha) [%],VIOTR herbicidal activity in percent (Viola tricolor; 320 g/ha) [%],AMARE herbicidal activity in percent (Amaranthus retroflexus; 80 g/ha) [%],AMARE herbicidal activity in percent (Amaranthus retroflexus; 320 g/ha) [%],STEME herbicidal activity in percent (Stellaria media; 80 g/ha) [%],STEME herbicidal activity in percent (Stellaria media; 320 g/ha) [%],post-emergence efficacy ZEAMX (Zea mays [10]; 80 g/ha) [%],post-emergence efficacy ORYSA (Oryza sativa [11]; 80 g/ha) [%],further results
Cc1ccc2c(c1)[C@H](Nc1ncc3c(n1)CCCC3=O)[C@@H](C)C2 [2.43],90,100,100,100,100,100,100,100,100,90,100,100,100,100,100,100,100,100,0,10,"post-emergence efficacy LOLMU (Lolium multiflorum [1]; 80 g/ha): 80%; post-emergence efficacy LOLMU (Lolium multiflorum [1]; 320 g/ha): 100%; post-emergence efficacy ECHCG (Echinochloa crus-galli [2]; 80 g/ha): 90%; post-emergence efficacy AVEFA (Avena fatua [3]): 100%; post-emergence efficacy SETVI (Setaria viridis [4]): 80%; post-emergence efficacy PHBPU (Ipomoea purpurea; [18]): 80%; CYPES herbicidal activity in percent (Cyperus esculentus; 320 g/ha): 80%; ABUTH herbicidal activity in percent (Abutilon theophrasti): 100%; LOLMU herbicidal activity in percent (Lolium multiflorum [5]; 80 g/ha): 100%; ALOMY herbicidal activity in percent (Alopecurus myosuroides [6]; 80 g/ha): 100%; AVEFA herbicidal activity in percent (Avena fatua [8]; 320 g/ha): 100%; SETVI herbicidal activity in percent (Setaria viridis [9]; 320 g/ha): 100%; post-emergence efficacy TRZAS ([12]; 80 g/ha): 10%; post-emergence efficacy TRZAS ([12]; 320 g/ha): 10%; logp (HCOOH) [13]: solid; logp (HCOOH): 3.45; 1H-NMR (CDCl3, 400 MHZ, δ in ppm): 1.25 (t, 3H, CH3);; ZEAMX herbicidal activity in percent (Zea mays [14]; 80 g/ha): 20%; TRZAS herbicidal activity in percent ([15]; 80 g/ha): 0%"
CC(=O)c1cnc(N[C@H]2c3cc(C)ccc3C[C@@H]2C)nc1C [1.26],100,100,100,100,100,100,90,100,100,100,100,100,100,100,100,100,100,100,0,0,"post-emergence efficacy LOLMU (Lolium multiflorum [1]; 320 g/ha): 80%; post-emergence efficacy ALOMY (Alopecurus myosuroides [16]): 90%; post-emergence efficacy ECHCG (Echinochloa crus-galli [2]; 80 g/ha): 90%; post-emergence efficacy AVEFA (Avena fatua [3]): 80%; post-emergence efficacy SETVI (Setaria viridis [4]): 90%; post-emergence efficacy PHBPU (Ipomoea purpurea; [19]): 90%; CYPES herbicidal activity in percent (Cyperus esculentus; 80 g/ha): 80%; CYPES herbicidal activity in percent (Cyperus esculentus; 320 g/ha): 80%; LOLMU herbicidal activity in percent (Lolium multiflorum [5]; 80 g/ha): 80%; ALOMY herbicidal activity in percent (Alopecurus myosuroides [6]; 80 g/ha): 90%; SETVI herbicidal activity in percent (Setaria viridis [9]; 320 g/ha): 100%; post-emergence efficacy ZEAMX (Zea mays [10]; 320 g/ha): 0%; post-emergence efficacy ORYSA (Oryza sativa [11]; 320 g/ha): 0%; post-emergence efficacy TRZAS ([12]; 80 g/ha): 0%; logp (HCOOH) [13]: solid; logp (HCOOH): 3.56; 1H-NMR (CDCl3, 400 MHZ, δ in ppm): 1.20 (d, 3H,; ZEAMX herbicidal activity in percent (Zea mays [14]; 80 g/ha): 0%; ZEAMX herbicidal activity in percent (Zea mays [14]; 320 g/ha): 0%; TRZAS herbicidal activity in percent ([15]; 80 g/ha): 0%"
O=C1CCCc2nc(N[C@@H]3CCCc4ccccc43)ncc21 [2.23],90,100,100,100,100,100,100,80,100,100,100,100,100,100,100,100,100,100,0,20,post-emergence efficacy LOLMU (Lolium multiflorum [1]; 320 g/ha): 100%; post-emergence efficacy AVEFA (Avena fatua [3]): 100%; post-emergence efficacy PHBPU (Ipomoea purpurea; [19]): 80%; CYPES herbicidal activity in percent (Cyperus esculentus; 320 g/ha): 90%; LOLMU herbicidal activity in percent (Lolium multiflorum [5]; 80 g/ha): 80%; ALOMY herbicidal activity in percent (Alopecurus myosuroides [6]; 80 g/ha): 80%; AVEFA herbicidal activity in percent (Avena fatua [8]; 320 g/ha): 90%; SETVI herbicidal activity in percent (Setaria viridis [9]; 320 g/ha): 100%; post-emergence efficacy ORYSA (Oryza sativa [11]; 320 g/ha): 20%; post-emergence efficacy TRZAS ([12]; 80 g/ha): 0%; post-emergence efficacy TRZAS ([12]; 320 g/ha): 0%; ZEAMX herbicidal activity in percent (Zea mays [14]; 80 g/ha): 0%; ORYSA herbicidal activity in percent (Oryza sativa [17]): 5%; TRZAS herbicidal activity in percent ([15]; 80 g/ha): 0%
O=C1CCCc2nc(N[C@@H]3CCCc4c(F)cccc43)ncc21 [2.13],100,100,100,100,100,100,100,100,100,100,100,100,100,100,100,100,100,100,10,0,post-emergence efficacy ALOMY (Alopecurus myosuroides [16]): 90%; post-emergence efficacy ECHCG (Echinochloa crus-galli [2]; 80 g/ha): 90%; post-emergence efficacy SETVI (Setaria viridis [4]): 100%; post-emergence efficacy PHBPU (Ipomoea purpurea; [19]): 100%; CYPES herbicidal activity in percent (Cyperus esculentus; 80 g/ha): 100%; CYPES herbicidal activity in percent (Cyperus esculentus; 320 g/ha): 100%; AVEFA herbicidal activity in percent (Avena fatua [8]; 320 g/ha): 90%; post-emergence efficacy ORYSA (Oryza sativa [11]; 320 g/ha): 0%; post-emergence efficacy TRZAS ([12]; 80 g/ha): 10%; post-emergence efficacy TRZAS ([12]; 320 g/ha): 20%; ZEAMX herbicidal activity in percent (Zea mays [14]; 80 g/ha): 0%; TRZAS herbicidal activity in percent ([15]; 80 g/ha): 0%; TRZAS herbicidal activity in percent ([15]; 320 g/ha): 10%
Cc1ccc2c(c1)[C@H](Nc1ncc3c(n1)CC(C)CC3=O)[C@@H](C)C2 (stereo partly drawn) [2.44],100,90,100,90,100,100,100,90,100,100,100,100,100,100,100,100,100,100,10,0,post-emergence efficacy ECHCG (Echinochloa crus-galli [2]; 80 g/ha): 100%; post-emergence efficacy AVEFA (Avena fatua [3]): 90%; post-emergence efficacy PHBPU (Ipomoea purpurea; [18]): 100%; post-emergence efficacy PHBPU (Ipomoea purpurea; [19]): 100%; LOLMU herbicidal activity in percent (Lolium multiflorum [5]; 80 g/ha): 100%; ALOMY herbicidal activity in percent (Alopecurus myosuroides [6]; 80 g/ha): 80%; AVEFA herbicidal activity in percent (Avena fatua [8]; 80 g/ha): 0%; AVEFA herbicidal activity in percent (Avena fatua [8]; 320 g/ha): 80%; SETVI herbicidal activity in percent (Setaria viridis [9]; 320 g/ha): 100%; post-emergence efficacy ORYSA (Oryza sativa [11]; 320 g/ha): 0%; post-emergence efficacy TRZAS ([12]; 80 g/ha): 0%; post-emergence efficacy TRZAS ([12]; 320 g/ha): 0%; logp (HCOOH) [13]: oily; logp (HCOOH): 3.90;; ZEAMX herbicidal activity in percent (Zea mays [14]; 80 g/ha): 10%; ORYSA herbicidal activity in percent (Oryza sativa [17]): 20%
